This passage reports Kd results from ChEMBL document CHEMBL3991601, “The target landscape of clinical kinase drugs” (Science, 2017).

Active and inactive are the calls of the source. For most assays here, no stated cut-off is given here; in the data, actives have a measured Kd and inactives only a lower limit.

Usually Kd stands for the equilibrium constant for the complex coming apart.

The target of test [1] is Calcium/calmodulin-dependent protein kinase type II subunit gamma (Homo sapiens, UniProt Q13555).
The target of test [2] is Serine/threonine-protein kinase/endoribonuclease IRE1 (Homo sapiens, UniProt O75460).
Test [3] has as its target T1, Ferrochelatase, mitochondrial (Homo sapiens, UniProt P22830).
T1 sequence (P22830 whole entry): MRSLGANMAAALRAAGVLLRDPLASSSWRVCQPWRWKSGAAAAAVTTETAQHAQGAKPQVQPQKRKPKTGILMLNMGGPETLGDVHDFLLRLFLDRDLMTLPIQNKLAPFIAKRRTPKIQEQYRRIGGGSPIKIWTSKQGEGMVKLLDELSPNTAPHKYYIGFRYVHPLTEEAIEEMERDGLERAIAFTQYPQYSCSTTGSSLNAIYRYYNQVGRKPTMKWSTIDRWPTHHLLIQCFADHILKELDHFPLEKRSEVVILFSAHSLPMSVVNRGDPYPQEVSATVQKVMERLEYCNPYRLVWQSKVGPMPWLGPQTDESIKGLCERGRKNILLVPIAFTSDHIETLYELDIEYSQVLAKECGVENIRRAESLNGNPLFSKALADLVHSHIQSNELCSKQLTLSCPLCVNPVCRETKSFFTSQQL

A further test deals with T2, Glycine--tRNA ligase (Homo sapiens, UniProt P41250).
T2 sequence (P41250 whole entry): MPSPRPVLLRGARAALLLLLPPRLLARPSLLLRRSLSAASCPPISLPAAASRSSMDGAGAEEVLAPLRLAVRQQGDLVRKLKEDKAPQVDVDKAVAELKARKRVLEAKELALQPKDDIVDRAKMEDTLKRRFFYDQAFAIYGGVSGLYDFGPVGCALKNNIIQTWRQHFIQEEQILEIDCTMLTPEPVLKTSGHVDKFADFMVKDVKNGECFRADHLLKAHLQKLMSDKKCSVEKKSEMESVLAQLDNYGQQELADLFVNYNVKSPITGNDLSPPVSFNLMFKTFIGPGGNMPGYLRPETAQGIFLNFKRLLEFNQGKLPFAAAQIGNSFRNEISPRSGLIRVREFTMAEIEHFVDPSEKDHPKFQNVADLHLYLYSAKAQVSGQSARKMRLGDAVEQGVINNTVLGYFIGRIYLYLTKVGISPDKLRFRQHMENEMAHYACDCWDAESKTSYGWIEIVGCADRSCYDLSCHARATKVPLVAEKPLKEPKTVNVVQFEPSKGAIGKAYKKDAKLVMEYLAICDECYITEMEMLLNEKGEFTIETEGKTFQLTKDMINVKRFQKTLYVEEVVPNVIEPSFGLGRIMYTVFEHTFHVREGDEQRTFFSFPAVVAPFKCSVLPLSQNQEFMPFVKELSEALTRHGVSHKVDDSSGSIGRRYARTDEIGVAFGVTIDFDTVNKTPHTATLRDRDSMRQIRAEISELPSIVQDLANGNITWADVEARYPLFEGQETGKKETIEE

In test [4] the target is T3, Mitogen-activated protein kinase kinase kinase 6 (Homo sapiens, UniProt O95382).
T3 sequence (O95382 whole entry): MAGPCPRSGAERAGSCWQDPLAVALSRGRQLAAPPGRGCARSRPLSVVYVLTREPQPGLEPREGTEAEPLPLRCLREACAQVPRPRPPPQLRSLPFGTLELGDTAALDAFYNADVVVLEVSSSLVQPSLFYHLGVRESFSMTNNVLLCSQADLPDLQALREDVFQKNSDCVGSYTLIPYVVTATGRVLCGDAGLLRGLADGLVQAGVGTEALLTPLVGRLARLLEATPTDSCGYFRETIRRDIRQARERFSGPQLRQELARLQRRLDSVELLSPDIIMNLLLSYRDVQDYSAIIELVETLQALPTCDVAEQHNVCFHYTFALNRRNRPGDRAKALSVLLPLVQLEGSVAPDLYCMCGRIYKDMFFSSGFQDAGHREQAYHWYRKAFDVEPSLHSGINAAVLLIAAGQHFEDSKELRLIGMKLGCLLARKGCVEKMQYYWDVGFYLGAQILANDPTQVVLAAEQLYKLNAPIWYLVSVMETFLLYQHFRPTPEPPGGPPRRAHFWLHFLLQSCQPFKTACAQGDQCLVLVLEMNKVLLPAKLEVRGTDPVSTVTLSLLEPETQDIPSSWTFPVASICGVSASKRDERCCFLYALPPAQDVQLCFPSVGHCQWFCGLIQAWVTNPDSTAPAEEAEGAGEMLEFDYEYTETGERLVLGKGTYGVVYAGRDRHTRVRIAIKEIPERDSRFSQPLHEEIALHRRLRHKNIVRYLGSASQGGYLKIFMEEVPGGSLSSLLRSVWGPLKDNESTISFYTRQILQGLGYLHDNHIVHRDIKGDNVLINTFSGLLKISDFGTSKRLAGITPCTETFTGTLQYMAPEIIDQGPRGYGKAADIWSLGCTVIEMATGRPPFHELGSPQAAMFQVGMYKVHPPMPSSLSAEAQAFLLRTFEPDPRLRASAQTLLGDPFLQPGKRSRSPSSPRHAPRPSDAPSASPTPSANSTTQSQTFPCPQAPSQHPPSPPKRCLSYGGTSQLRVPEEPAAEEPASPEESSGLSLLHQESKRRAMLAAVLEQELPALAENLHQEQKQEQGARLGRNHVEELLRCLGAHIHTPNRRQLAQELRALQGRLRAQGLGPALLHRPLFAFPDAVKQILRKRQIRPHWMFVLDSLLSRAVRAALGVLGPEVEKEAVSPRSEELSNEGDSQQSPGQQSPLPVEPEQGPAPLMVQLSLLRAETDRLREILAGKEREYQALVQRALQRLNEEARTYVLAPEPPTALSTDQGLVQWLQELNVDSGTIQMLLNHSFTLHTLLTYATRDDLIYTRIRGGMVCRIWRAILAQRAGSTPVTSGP

The target in a further test is Myosin-14 (Homo sapiens, UniProt Q7Z406).
The target of test [5] is TRAF2 and NCK-interacting protein kinase (Homo sapiens, UniProt Q9UKE5).
Test [6] addresses Mitogen-activated protein kinase kinase kinase 20 (Homo sapiens, UniProt Q9NYL2).

Chain of Myosin-14 (Q7Z406 whole entry): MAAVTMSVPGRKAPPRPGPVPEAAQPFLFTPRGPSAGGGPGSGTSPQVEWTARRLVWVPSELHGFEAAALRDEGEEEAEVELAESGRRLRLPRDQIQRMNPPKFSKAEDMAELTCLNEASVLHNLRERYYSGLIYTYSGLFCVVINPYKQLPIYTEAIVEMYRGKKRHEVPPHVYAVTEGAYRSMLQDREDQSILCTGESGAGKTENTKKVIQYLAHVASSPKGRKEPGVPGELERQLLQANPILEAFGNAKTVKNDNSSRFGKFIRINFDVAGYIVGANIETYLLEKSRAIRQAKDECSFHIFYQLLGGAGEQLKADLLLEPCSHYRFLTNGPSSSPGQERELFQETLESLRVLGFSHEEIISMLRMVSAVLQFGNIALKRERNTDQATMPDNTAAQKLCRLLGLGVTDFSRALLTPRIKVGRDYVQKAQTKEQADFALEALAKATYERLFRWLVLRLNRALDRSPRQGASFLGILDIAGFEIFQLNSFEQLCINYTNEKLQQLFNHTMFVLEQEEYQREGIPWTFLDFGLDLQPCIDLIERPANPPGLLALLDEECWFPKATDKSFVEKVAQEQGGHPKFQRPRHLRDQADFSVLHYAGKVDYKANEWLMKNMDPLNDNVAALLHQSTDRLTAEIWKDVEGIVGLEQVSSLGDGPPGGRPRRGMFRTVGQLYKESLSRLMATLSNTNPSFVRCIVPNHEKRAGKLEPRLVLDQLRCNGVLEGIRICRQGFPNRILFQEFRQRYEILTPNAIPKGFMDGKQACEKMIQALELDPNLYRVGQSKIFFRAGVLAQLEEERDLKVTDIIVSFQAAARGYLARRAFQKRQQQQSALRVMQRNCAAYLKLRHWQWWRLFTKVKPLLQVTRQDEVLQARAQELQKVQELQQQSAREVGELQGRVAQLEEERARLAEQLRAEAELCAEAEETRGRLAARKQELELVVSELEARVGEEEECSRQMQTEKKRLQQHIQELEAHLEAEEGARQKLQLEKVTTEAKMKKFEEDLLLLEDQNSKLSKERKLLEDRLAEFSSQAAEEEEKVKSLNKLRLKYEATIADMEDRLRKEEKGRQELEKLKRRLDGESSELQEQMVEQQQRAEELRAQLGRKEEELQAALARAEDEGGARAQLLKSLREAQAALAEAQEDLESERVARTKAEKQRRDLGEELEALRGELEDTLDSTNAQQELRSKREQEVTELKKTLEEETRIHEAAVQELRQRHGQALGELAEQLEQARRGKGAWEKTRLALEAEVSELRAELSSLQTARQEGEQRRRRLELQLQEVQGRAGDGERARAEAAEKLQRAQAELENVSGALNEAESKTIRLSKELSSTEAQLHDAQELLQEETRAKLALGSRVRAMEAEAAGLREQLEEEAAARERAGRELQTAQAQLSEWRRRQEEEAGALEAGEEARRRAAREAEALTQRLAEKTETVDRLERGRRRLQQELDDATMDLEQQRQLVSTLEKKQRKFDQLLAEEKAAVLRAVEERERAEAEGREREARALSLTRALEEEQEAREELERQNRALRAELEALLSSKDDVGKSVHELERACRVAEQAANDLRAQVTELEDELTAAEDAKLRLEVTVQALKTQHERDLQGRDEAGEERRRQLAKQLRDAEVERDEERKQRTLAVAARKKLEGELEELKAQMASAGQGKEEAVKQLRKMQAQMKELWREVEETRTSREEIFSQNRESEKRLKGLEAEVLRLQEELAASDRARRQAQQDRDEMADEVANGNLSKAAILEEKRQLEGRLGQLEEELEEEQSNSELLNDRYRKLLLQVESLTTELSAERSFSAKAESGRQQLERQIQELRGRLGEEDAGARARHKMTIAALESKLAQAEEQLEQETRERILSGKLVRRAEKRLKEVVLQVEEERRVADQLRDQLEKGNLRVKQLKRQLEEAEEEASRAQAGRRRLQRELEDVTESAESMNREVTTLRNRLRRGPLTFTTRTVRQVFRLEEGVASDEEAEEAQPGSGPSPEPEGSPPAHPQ
Chain of Calcium/calmodulin-dependent protein kinase type II subunit gamma (Q13555 whole entry): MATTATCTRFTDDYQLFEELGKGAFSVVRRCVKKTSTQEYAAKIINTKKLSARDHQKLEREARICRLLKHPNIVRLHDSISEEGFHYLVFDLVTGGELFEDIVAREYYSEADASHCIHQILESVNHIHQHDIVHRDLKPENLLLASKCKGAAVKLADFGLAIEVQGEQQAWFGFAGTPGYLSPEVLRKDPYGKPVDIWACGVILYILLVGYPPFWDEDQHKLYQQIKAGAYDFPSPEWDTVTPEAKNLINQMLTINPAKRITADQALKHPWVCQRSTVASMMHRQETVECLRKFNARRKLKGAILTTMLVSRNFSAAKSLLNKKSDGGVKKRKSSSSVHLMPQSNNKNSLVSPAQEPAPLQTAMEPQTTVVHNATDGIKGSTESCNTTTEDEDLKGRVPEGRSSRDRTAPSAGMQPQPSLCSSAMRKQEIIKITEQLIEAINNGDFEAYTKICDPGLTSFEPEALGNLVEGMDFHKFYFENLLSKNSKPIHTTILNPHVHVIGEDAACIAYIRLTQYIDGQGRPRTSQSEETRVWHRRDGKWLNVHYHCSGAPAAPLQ
Chain of TRAF2 and NCK-interacting protein kinase (Q9UKE5 whole entry): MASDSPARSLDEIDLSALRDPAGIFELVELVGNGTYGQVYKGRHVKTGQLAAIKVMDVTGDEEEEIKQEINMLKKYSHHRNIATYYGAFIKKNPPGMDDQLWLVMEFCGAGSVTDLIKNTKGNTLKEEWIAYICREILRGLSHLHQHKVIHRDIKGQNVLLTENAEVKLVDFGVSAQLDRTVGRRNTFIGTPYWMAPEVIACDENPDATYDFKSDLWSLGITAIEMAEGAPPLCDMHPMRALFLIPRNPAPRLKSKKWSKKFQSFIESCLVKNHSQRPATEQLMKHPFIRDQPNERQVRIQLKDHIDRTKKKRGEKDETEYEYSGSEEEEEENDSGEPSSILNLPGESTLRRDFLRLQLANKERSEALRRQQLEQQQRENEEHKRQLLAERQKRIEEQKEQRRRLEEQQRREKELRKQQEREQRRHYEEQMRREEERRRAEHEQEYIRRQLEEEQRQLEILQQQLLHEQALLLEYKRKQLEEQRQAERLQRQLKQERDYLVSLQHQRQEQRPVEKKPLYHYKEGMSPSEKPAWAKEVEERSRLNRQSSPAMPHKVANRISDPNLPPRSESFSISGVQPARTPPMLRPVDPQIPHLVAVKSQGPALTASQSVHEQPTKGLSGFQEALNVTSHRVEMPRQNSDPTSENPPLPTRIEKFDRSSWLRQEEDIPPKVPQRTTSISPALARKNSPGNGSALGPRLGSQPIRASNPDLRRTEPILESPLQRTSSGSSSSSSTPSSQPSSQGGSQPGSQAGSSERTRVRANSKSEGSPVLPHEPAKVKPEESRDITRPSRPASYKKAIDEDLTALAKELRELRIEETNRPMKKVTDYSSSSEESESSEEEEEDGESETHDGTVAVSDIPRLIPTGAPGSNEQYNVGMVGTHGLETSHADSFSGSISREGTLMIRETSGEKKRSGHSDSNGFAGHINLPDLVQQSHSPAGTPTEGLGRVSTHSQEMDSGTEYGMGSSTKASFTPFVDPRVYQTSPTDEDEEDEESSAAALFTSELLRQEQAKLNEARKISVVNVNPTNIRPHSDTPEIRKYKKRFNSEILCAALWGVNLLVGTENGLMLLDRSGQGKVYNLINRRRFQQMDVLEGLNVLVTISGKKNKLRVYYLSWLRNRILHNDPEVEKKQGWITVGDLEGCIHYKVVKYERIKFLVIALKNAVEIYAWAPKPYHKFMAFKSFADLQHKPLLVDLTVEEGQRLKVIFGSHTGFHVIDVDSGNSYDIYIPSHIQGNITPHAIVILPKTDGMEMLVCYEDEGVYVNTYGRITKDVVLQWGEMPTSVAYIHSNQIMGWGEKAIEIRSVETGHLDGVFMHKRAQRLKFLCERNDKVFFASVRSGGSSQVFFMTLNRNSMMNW
Chain of Mitogen-activated protein kinase kinase kinase 20 (Q9NYL2 whole entry): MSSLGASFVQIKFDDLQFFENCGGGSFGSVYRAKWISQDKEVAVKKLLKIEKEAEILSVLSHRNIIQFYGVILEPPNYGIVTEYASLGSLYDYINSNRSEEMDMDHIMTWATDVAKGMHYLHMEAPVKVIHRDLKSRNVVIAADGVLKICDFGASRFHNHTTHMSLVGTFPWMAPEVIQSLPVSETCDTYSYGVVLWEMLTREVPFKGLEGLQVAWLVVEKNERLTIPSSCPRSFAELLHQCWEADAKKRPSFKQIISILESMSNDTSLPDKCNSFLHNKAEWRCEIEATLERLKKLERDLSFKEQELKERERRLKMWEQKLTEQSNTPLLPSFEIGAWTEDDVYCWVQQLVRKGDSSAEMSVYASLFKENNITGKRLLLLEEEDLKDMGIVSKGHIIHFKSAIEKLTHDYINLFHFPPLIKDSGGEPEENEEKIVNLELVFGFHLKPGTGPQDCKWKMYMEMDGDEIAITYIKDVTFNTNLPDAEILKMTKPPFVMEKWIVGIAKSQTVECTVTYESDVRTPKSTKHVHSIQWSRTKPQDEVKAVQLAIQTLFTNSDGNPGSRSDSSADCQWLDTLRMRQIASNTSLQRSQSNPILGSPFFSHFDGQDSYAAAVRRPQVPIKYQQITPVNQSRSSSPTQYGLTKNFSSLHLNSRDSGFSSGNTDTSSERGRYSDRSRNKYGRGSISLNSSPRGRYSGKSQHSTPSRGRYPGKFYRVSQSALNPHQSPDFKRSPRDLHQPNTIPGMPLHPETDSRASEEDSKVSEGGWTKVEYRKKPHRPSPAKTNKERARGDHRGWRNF

Turning to `COC(=O)[C@@]1(O)C[C@H]2O[C@]1(C)n1c3ccccc3c3c4c(c5c6ccccc6n2c5c31)C(=O)NC4` [K-252A], the Kd is 0.173 µM (active) in test [1]; 0.019 µM (active) in test [2]; > 30 µM (inactive) in test [3]; > 30 µM (inactive) on Glycine--tRNA ligase; 0.335 µM (active) in test [4]; > 30 µM (inactive) on Myosin-14. For the same compound, the values for the equilibrium dissociation constant (Kd) in test [5] and in test [6] were 0.01 µM (active) and > 30 µM (inactive), respectively.
Regarding `CCS(=O)(=O)N1CC(CC#N)(n2cc(-c3ncnc4[nH]ccc34)cn2)C1` [BARICITINIB], the dissociation constant (Kd) in test [1] was 0.243 µM (active); in test [2] it was > 30 µM (inactive); in test [3], > 30 µM (inactive); at Glycine--tRNA ligase, > 30 µM (inactive); in test [4] it was > 30 µM (inactive); at Myosin-14 it was > 30 µM (inactive). For the same compound, the Kd in test [5] and in test [6] was > 30 µM (inactive) each time.
Turning to `CNS(=O)(=O)Nc1nccc(Cc2c(C)c3ccc(Oc4ncccn4)cc3oc2=O)c1F` [AVUTOMETINIB], the Kd (in test [1]; in test [2]; in test [3]; at Glycine--tRNA ligase; in test [4]; at Myosin-14) was > 30 µM (inactive) each time. For the same compound, the Kd in test [5] and in test [6] was > 30 µM (inactive) in each case.
For `COc1ccc(-c2ccc3c(N4CCOC[C@@H]4C)nc(N4CCOC[C@@H]4C)nc3n2)cc1CO` [AZD-8055], the Kd in test [1] is > 30 µM (inactive); in test [2] it was > 30 µM (inactive); in test [3] it was 6.9 µM (active); on Glycine--tRNA ligase it was > 30 µM (inactive); in test [4] it was > 30 µM (inactive); on Myosin-14, > 30 µM (inactive). The Kd in test [5] and in test [6] was > 30 µM (inactive) in each case.
As to `O=C(O)[C@]1(Cc2cccc(Nc3nccs3)n2)CC[C@@H](Oc2cccc(Cl)c2F)CC1` [MK-5108], the Kd (in test [1]; in test [2]; in test [3]; at Glycine--tRNA ligase; in test [4]; at Myosin-14) was > 30 µM (inactive) each time. Moreover, the Kd in test [5] and in test [6] was > 30 µM (inactive) throughout.
Take `O=C1NC(=O)/C(=C/c2ccc3nccc(-c4ccncc4)c3c2)S1` [GSK-1059615]: the Kd (in test [1]; in test [2]; in test [3]; at Glycine--tRNA ligase; in test [4]; at Myosin-14) was > 30 µM (inactive) in each case. Further, the Kd in test [5] and in test [6] was > 30 µM (inactive) throughout.
With `C[C@@H](Nc1cc(F)cc(F)c1)c1cc(C(=O)N(C)C)cc2c(=O)cc(N3CCOCC3)oc12` [AZD-8186], the Kd (in test [1]; in test [2]; in test [3]; on Glycine--tRNA ligase; in test [4]; at Myosin-14) was > 30 µM (inactive) in each case. The Kd in test [5] and in test [6] was > 30 µM (inactive) each time.
As for `COc1cc(CCc2cc(NC(=O)c3ccc(N4C[C@@H](C)N[C@@H](C)C4)cc3)n[nH]2)cc(OC)c1` [AZD-4547], the Kd (in test [1]; in test [2]; in test [3]; on Glycine--tRNA ligase; in test [4]; at Myosin-14) was > 30 µM (inactive) throughout. Further, the Kd in test [5] was 1.39 µM; in test [6] it was 9.54 µM (active).
As for `Cc1cc2c(F)c(Oc3ncnn4cc(OC[C@@H](C)OC(=O)[C@H](C)N)c(C)c34)ccc2[nH]1` [BRIVANIB ALANINATE], the Kd (in test [1]; in test [2]; in test [3]; at Glycine--tRNA ligase; in test [4]; at Myosin-14) was > 30 µM (inactive) in each case. Also, the Kd in test [5] and in test [6] was > 30 µM (inactive) each time.
For `C[C@@H]1CN(Cc2ccc(F)cc2)[C@@H](C)CN1C(=O)c1cc2c(C(=O)C(=O)N(C)C)cn(C)c2cc1Cl` [TALMAPIMOD], the Kd (in test [1]; in test [2]; in test [3]; on Glycine--tRNA ligase; in test [4]; on Myosin-14) was > 30 µM (inactive) each time. For the same compound, the Kd in test [5] and in test [6] was > 30 µM (inactive) in each case.
Regarding `CCc1cnn2c(NCc3ccc[n+]([O-])c3)cc(N3CCCC[C@H]3CCO)nc12` [DINACICLIB], the Kd (in test [1]; in test [2]; in test [3]; on Glycine--tRNA ligase; in test [4]; on Myosin-14) was > 30 µM (inactive) in each case. Further, the Kd in test [5] and in test [6] was > 30 µM (inactive) each time.
As to `COc1cc2nccc(Oc3ccc(NC(=O)NC4CC4)c(Cl)c3)c2cc1C(N)=O` [LENVATINIB], the Kd was > 30 µM (inactive) in test [1]; 2.24 µM in test [2]; 2.81 µM (active) in test [3]; > 30 µM (inactive) at Glycine--tRNA ligase; 1.57 µM in test [4]; > 30 µM (inactive) on Myosin-14. Moreover, the dissociation constant Kd in test [5] was 0.565 µM (active); in test [6], > 30 µM (inactive).
`CNC(=O)c1ccc(C)c(-n2c(C)cc(OCc3ccc(F)cc3F)c(Br)c2=O)c1` [PH-797804]: the Kd (in test [1]; in test [2]; in test [3]; on Glycine--tRNA ligase; in test [4]; on Myosin-14) was > 30 µM (inactive) in each case. The Kd in test [5] and in test [6] was > 30 µM (inactive) in each case.
